Values after ≈ are worked out from the molar mass of the structure shown.
Assays:
[1] = system: A. japonicus (parasitic wasp); test: Median lethal time (LT50) test, parasitic wasp (natural enemy); conditions: non-target parasitic wasp
Experimental: (§1) Insect Egg Parasitic Wasp (Natural Enemy). […] Both species were purchased from a commercial source. One- to two-day-old adults (after eclosion) were used for fumigation tests.
Median Lethal Time (LT50) and Median Knockdown Concentration (KC50) Tests. Five species of adult insects or natural enemies were tested for LT50 values including melon fly (B. cucuribitae), red flour beetle (T. castaneum), Nitidulidae beetle (H. picinus), parasitic wasp (A. japonicus) and housefly (M. domestica). For each treatment and control, 20 insects at the developmental stages described above were placed individually without food in a 1-L wide-mouth glass bottle (height 19.5 cm, bottom diameter 10.5 cm, mouth i.d. 5.5 cm) containing pieces of tissue paper. […] Five different concentrations of the test chemicals were placed on pieces of cellulose-based qualitative filter paper. Each of the filter papers was placed in a bottle to have 5 appropriate concentrations in serial dilutions. DDVP was the positive control, and no chemical treatments were the negative control. All treatments and controls were in triplicate. Mortality was observed periodically in a 10-30 minute interval for 2 days or until all insects died. The death was defined as no movement when the insects were touched.

[2] = system: Aedes aegypti (mosquito); test: Median knockdown concentration (KC50) test, mosquito; assay type: in vivo
Text: (§2) All treatments and controls were in triplicate.
Knockdown Activity of Monoterpenes.

[3] = target: rGABARAP^Y174A (Frankliniella occidentalis, UniProt A0A6J1T1Q2); test: ITC binding to rGABARAP mutant; conditions: read-out: Kd value, ITC
Chain of rGABARAP^Y174A (A0A6J1T1Q2 entry or part of it, stated change not applied): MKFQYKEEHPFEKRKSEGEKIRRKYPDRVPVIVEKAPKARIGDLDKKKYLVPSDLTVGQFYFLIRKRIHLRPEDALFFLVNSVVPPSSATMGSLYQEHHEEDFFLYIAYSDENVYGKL
Experimental: The isothermal titration thermal binding measurements were performed with an ITC-200 calorimeter (GE Healthcare, Boston, MA) at 25° C. in a buffer containing 50 mM Tris-HCl and 100 mM NaCl (pH 7.4). […] The MicroCal Origin 7.0 software system was used for data processing. The first run was a pre-run and was excluded from the final data. The amount of protein in the sample pool was constant. […] The experimental bimolecular interaction data from the 18 drops were used to calculate the dissociation constant. The dissociation constant […] was calculated as 1/K (Li, et al. (2018) RSC Advances 8:18952-18958).
Preparation of rGABARAP Mutant and Interaction Between ME and rGABARAP Mutant. […] DNAman was used to convert the nucleic acid sequence into an amino acid sequence and find the Y174 site. Y174 was mutated to A174. The rGABARAP mutant gene loaded into the pMCSG19 vector and the His tags at both ends of the sequence were retained to construct a prokaryotic expression plasmid. The carrier contained a maltose binding protein (MBP) tag that was not cut for verification. However, MBP and ME were used as treatment controls. The mutant plasmid was constructed in Sangon Biotech (Shanghai, China). The protein expression, purification, and desalting procedures of rGABARAP^Y174A mutant and rGABARAP were the same. Subsequently, the binding kinetics of ME and rGABARAP^Y174A were tested by MST and ITC.

[4] = system: H. picinus (Nitidulid beetle); test: Median lethal time (LT50) test, Nitidulid beetle; assay type: in vivo, Haptoncus picinus
Text: as §2
(§3) Toxicity of Monoterpenes as Fumigants. […] Therefore, to determine how fast the monoterpenes act as fumigants, it was necessary to determine their LT50 values for the target organisms.

[5] = system: Frankliniella occidentalis second-instar nymphs; test: whole plant or invertebrate; conditions: 24 h, second-instar nymphs of F. occidentalis, 24 h after treatment
Experimental: Chemicals. […] These monoterpenes and the positive control spinosyn A (Bosite Technology, Chongqing, China) were dissolved in acetone (10 g/L).
Insects. F. occidentalis Thrips were provided by the Institute of Vegetables and Flowers, Chinese Academy of Agricultural Sciences (Beijing, China), and kept in a box (19 cm×14 cm×20 cm) at 27±1° C., humidity of 50%-60% and a photoperiod of 16:8 h (light:dark). The population was established with sword beans (Canavalia gladiata). Second-instar nymphs with the same growth were tested.
Insect Assays. […] The leaf blade (2 cm×3 cm) was immersed in the solution for 10 s in the test solution, and then air-dried until there were no water drops on the surface. The concentrations were the same as those used in the insecticide-impregnated membrane method. After the chemical film had been formed for 2 h, the infusion leaves were placed in the bottles. The second-instar nymphs were picked with a soft writing brush to make up ten insects per bottle. The bottles were sealed with plastic wrap. 1% Triton X-100 (m/V) aqueous solution as a blank control. Each treatment was repeated four times. The bottles were placed under temperature of 27±1° C., humidity of 50%-60% and photoperiod of 16:8 h (light:dark). […] The insects were touched with a soft brush and numbers of dead and living Thrips were recorded, followed by calculation of the mortality rates.

[6] = system: M. domestica (housefly); test: Median lethal time (LT50) test, housefly; assay type: in vivo, Musca domestica
Text: as §2, §3

[7] = system: T. chilonis (parasitic wasp); conditions: non-target parasitic wasp, mortality after 15 minutes of exposure
Text: as §1
Median Lethal Concentration Tests. […] The species tested included Thrips (M. usitatus), spider mite (T. cinnabarinus), melon fly (B. cucuribitae), cockroach (B. lateralis), housefly (M. domestica), mosquito (A. aegypti), parasitic wasp (T. chilonis) and fruit fly (Drosophila melanogaster). After being exposed to the test chemicals for one hour, adult Thrips, spider mites, and roaches were transferred to another flask. In addition to fresh water, adult Thrips, spider mites, and roaches were then respectively fed with cowpea, fresh blade of eggplant, and peanut oil via filter. […] Mortality of melon fly was observed after three hours of exposure.

C=CC(C)(O)CCC=C(C)C (stereo not shown) [Linalool, 3,7-dimethylocta-1,6-dien-3-o1]
LT50 (fiducial limits) against A. japonicus [1]: 0.788 (0.71-0.86) hour
time within which the insects responded [2]: ≤ 20 min
KC50 (fiducial limits) ([2]; 20 Minutes): >243 µg/mL
KC50 (fiducial limits) ([2]; 30 Minutes): 69.0 µg/mL
Kd [3]: 8.92 µM
LT50 (fiducial limits) [4]: 1.58 h
LC50 [5]: 7 µg/mL (≈ 45.4 µM)
LT50 (fiducial limits) [6]: 1.28 h
LC50 (fiducial limits) against T. chilonis [7]: 2.88 µg/mL (≈ 18.7 µM)
LC90 (fiducial limits) against T. chilonis [7]: 6.24 µg/mL (≈ 40.5 µM)
